From US20200256880A1, “Neuronal Assay Method Involving Calcineurin” (The Broad Institute, Inc., priority 2017, published 2020) come the findings set out here.

Data set [1] concerns S469 CNAα phosphorylation in rat hippocampal neurons. As to the kind of experiment: Pharmacological blockade of glutamate receptors and L-type Ca channels, with or without bicuculline; phospho-S469 CNAα at synapsin-marked synapses. Type of data set: cell-based. As to conditions: baseline and bicuculine-induced; localized to synapses marked by synapsin. The source says: (A) Rat hippocampal neurons grown in 96-well plates were stimulated with various plasticity induction paradigms or modulators of neuronal activity levels, fixed and stained for phospho-S469 CNAα and MAP2, and imaged. (B) Quantification of phospho-S469 CNAα levels within MAP2-positive dendrites in wells shown in (A). (C) Quantification of total CNAα levels within MAP2-positive dendrites in wells shown in (A). (D) Rat hippocampal neurons were pretreated with vehicle, DNQX, nifedipine, […], or a combination of all three (with group listed in this order from left to right in panel (D)) prior and after treatment with bicuculline. Neurons were then fixed and stained for phospho-S469 CNAα and synapsin and imaged on a Phenix® (Perkin Elmer) imaging system, a high content imaging system. Shown is the phospho-S469 CNAα levels localized to synapses marked by synapsin. Bic=bicuculine. *≤0.05 compared to control sample, **<0.01, ***<0.001, and ****<0.0001 compared to control sample. For FIG. 7D, statistics were derived by comparing the pharmacological condition with the equivalent control condition, either vehicle or bicucculine treated.
Next, the dependency of S469 CNAα phosphorylation was assessed when neurons were treated by blockade of glutamate receptors and L-type Ca channels using pharmacological blockers. […]

Data set [2] has as its system phospho-S469 CNAα in rat hippocampal neurons. Type of data set: cell-based.
Data set [3] concerns phosphorylated RII (pRII) peptide. Nature of the data set: Calcineurin phosphatase enzyme assay with pRII peptide. Type of data set: biochemical, human. As to conditions: recombinant CNAα/CNB1 holoenzyme, pRII substrate, in the presence of CaM. The procedure: To investigate whether phosphorylation of CNAα Ser469 modifies calcineurin phosphatase activity, a phosphomimetic mutant was generated by replacing S469 with E469 in purified, recombinant human calcineurin. The S469E mutant or wild type of CNAα was co-expressed with CNB1 subunit in E. coli and co-purified. Both mutant and wild type show similar expression level and purity. Their concentrations were quantified by OD280 and CaM titration.
Enzyme activity was then assessed. CN enzymatic parameters for wild-type and S469E mutant proteins were measured using phosphorylated RII (pRII) peptide in a buffer containing 50 mM HEPES (pH=7.0), 1 mM CaCl2, 1 mM MnCl2, 0.5 mM dithiothreitol (DTT), and 0.1 mg/ml bovine serum albumin (BSA). Phosphate product release was monitored at 620 nm on SpectraMax_i3x spectrophotometer (Molecular Devices) with a 96-well plate-based calcineurin phosphatase assay kit (Abcam). Briefly, CN (40 nM) and CM (200 nM) were pre-mixed in 2× assay buffer. The reaction was initiated by addition of 25 μl pRII substrate (in H2O) to equal volume of CN/CaM mixture. The final concentration of pRII used ranged from 12 μM to 750 μM. Reaction was stopped by green quench reagent after 20 minutes. Km was determined using nonlinear regression of the Michaelis-Menten equation.

With `NC(CCCP(=O)(O)O)C(=O)O` (stereo not drawn) [AP5], the “S469 CNAα phosphorylation” value in data set [1] is recorded as “most strongly reducing”.

For `N[C@H](C(=O)O)c1cc(O)cc(O)c1` [DHPG, dihydroxypheylglycine], in data set [2], the “levels of phospho-S469 CNAα within dendrites” value (shortened to “levels”) is “significantly and robustly increased”.

In the case of `CN[C@H](CC(=O)O)C(=O)O` [NMDA, N-methyl-D-asparatate], in data set [2], the “levels” value is “significantly and robustly increased”.

Take `NC1=N[C@H](O)[C@H]2[C@H]3O[C@]4(O)O[C@@H]([C@@H](O)[C@@]2(N1)[C@@H]4O)[C@]3(O)CO` [TTX, tetrodotoxin]: the “levels” value in data set [2] was “decrease”.

With `CC(C)NCC(O)c1ccc(O)c(O)c1` (stereo not drawn) [isoproterenol], the “levels” value in data set [2] is “significantly and robustly increased”.

As to “S469E: phosphomimetic mutant of recombinant human CNAα (S469 replaced with E469) co-expressed with CNB1”, the Michaelis constant (Km) – broadly, the substrate concentration at which the rate is half of its maximum – in data set [3] is 256 µM.
